From ChEMBL document CHEMBL1938379, “Capture hydrolysis signals in the microsomal stability assay: molecular mechanisms of the alkyl ester drug and prodrug metabolism” (Bioorg Med Chem Lett, 2012)

Assay: Clearance in human liver microsomes at 1 uM measured after 60 mins by HPLC analysis
Settings: liver microsomes

Question: With `CCOC(=O)c1ncn2c1CN(C)C(=O)c1cc(F)ccc1-2` [FLUMAZENIL] as the molecule, how does the microsomal CLint at 1 h, 1 µM read?
Answer: Its microsomal CLint at 1 h, 1 µM is 10.6 µL/min/mg.

Question: With `COC(=O)C1=C(C)NC(C)=C(C(=O)OC(C)C)C1c1cccc2nonc12` (centres undefined) [ISRADIPINE] as the molecule, how does the microsomal CLint at 1 h, 1 µM read?
Answer: The microsomal CLint at 1 h, 1 µM was > 300 µL/min/mg.

Question: For `C#C[C@H](CC(=O)OCC)NC(=O)CCC(=O)Nc1ccc(C(=N)N)cc1` [XEMILOFIBAN], which microsomal CLint at 1 h, 1 µM is on record?
Answer: Its microsomal CLint at 1 h, 1 µM is < 8 µL/min/mg.

Question: For `CCOC(=O)COc1ccc2c(C)c(CCN(CC)CC)c(=O)oc2c1` [CHROMONAR], which microsomal CLint at 1 h, 1 µM is on record?
Answer: Its microsomal CLint at 1 h, 1 µM is > 300 µL/min/mg.

Question: With `CCOC(=O)/C=C1\SC(N2CCCCC2)C(=O)N1C` (centres undefined) [ETOZOLIN] as the molecule, how does the microsomal CLint at 1 h, 1 µM read?
Answer: The microsomal CLint at 1 h, 1 µM was 20.5 µL/min/mg.

Question: For `COC(=O)[C@@H]1[C@H]2C[C@H]3c4[nH]c5ccccc5c4CCN3C[C@@H]2CC[C@@H]1O` [YOHIMBINE], which microsomal CLint at 1 h, 1 µM is on record?
Answer: The microsomal CLint at 1 h, 1 µM was 34.4 µL/min/mg.

Question: Which microsomal CLint at 1 h, 1 µM does the source give for `COC(=O)C(c1ccccc1)C1CCCCN1` (centres undefined) [METHYLPHENIDATE] here?
Answer: The microsomal CLint at 1 h, 1 µM was 11.1 µL/min/mg.

Question: Which microsomal CLint at 1 h, 1 µM does the source give for `CCOC(=O)C1=C(C)NC(C)=C(C(=O)OC)C1c1cccc([N+](=O)[O-])c1` (centres undefined) [NITRENDIPINE] here?
Answer: The microsomal CLint at 1 h, 1 µM was 166 µL/min/mg.

Question: For `CCOC(=O)[C@H](CCc1ccccc1)N[C@H]1CS[C@H](c2cccs2)CN(CC(=O)O)C1=O` [TEMOCAPRIL], which microsomal CLint at 1 h, 1 µM is on record?
Answer: The microsomal CLint at 1 h, 1 µM was 133 µL/min/mg.

Question: For `COC(=O)C1=C(C#N)NC(C)=C(C(=O)OC(C)C)C1c1cccc([N+](=O)[O-])c1` (centres undefined) [NILVADIPINE], which microsomal CLint at 1 h, 1 µM is on record?
Answer: The microsomal CLint at 1 h, 1 µM was 205 µL/min/mg.

Question: Which microsomal CLint at 1 h, 1 µM does the source give for `COCCOC(=O)C1=C(C)NC(C)=C(C(=O)OC(C)C)C1c1cccc([N+](=O)[O-])c1` (centres undefined) [NIMODIPINE] here?
Answer: The microsomal CLint at 1 h, 1 µM was > 300 µL/min/mg.

Question: Which microsomal CLint at 1 h, 1 µM does the source give for `COC(=O)C1=C(C)NC(C)=C(C(=O)OCCN2CCN(C(c3ccccc3)c3ccccc3)CC2)C1c1cccc([N+](=O)[O-])c1` (centres undefined) [MANIDIPINE 6300] here?
Answer: The microsomal CLint at 1 h, 1 µM was 93.4 µL/min/mg.

Question: Which microsomal CLint at 1 h, 1 µM does the source give for `CCOC(=O)[C@H](CCc1ccccc1)N[C@@H](C)C(=O)N1Cc2cc(OC)c(OC)cc2C[C@H]1C(=O)O` [MOEXIPRIL] here?
Answer: The microsomal CLint at 1 h, 1 µM was < 8 µL/min/mg.

Question: With `CCOC(=O)[C@H](CCc1ccccc1)N[C@@H](C)C(=O)N1[C@H](C(=O)O)C[C@@H]2CCC[C@@H]21` as the molecule, how does the microsomal CLint at 1 h, 1 µM read?
Answer: Its microsomal CLint at 1 h, 1 µM is 46.1 µL/min/mg.

Question: With `CCOC(=O)C1=C(C)NC(C)=C(C(=O)OCC)C1c1ccccc1/C=C/C(=O)OC(C)(C)C` [LACIDIPINE] as the molecule, how does the microsomal CLint at 1 h, 1 µM read?
Answer: The microsomal CLint at 1 h, 1 µM was 99.2 µL/min/mg.

Question: With `CC1=C(C(=O)OC(C)C)C(c2cccc([N+](=O)[O-])c2)C(C(=O)OC2CN(C(c3ccccc3)c3ccccc3)C2)=C(N)N1` (centres undefined) [AZELNIDIPINE] as the molecule, how does the microsomal CLint at 1 h, 1 µM read?
Answer: Its microsomal CLint at 1 h, 1 µM is 33.9 µL/min/mg.

Question: With `COC(=O)C1=C(C)NC(C)=C(C(=O)OCC(C)C)C1c1ccccc1[N+](=O)[O-]` (centres undefined) [NISOLDIPINE] as the molecule, how does the microsomal CLint at 1 h, 1 µM read?
Answer: Its microsomal CLint at 1 h, 1 µM is > 300 µL/min/mg.

Question: Which microsomal CLint at 1 h, 1 µM does the source give for `CCOC(=O)c1c(N)sc2c1CCN(Cc1ccccc1)C2` [TINORIDINE] here?
Answer: The microsomal CLint at 1 h, 1 µM was 71.2 µL/min/mg.

Question: With `COC(=O)[C@@H]1CC2=CC(=O)CC[C@]2(C)[C@@]23O[C@@H]2C[C@@]2(C)[C@@H](CC[C@@]24CCC(=O)O4)[C@H]13` [EPLERENONE] as the molecule, how does the microsomal CLint at 1 h, 1 µM read?
Answer: Its microsomal CLint at 1 h, 1 µM is 7.9 µL/min/mg.

Question: For `CC[C@]12CCCN3CCc4c(n(c5ccccc45)[C@@](O)(C(=O)OC)C1)[C@@H]32` [VINCAMINE], which microsomal CLint at 1 h, 1 µM is on record?
Answer: Its microsomal CLint at 1 h, 1 µM is 66 µL/min/mg.

Question: Which microsomal CLint at 1 h, 1 µM does the source give for `CCOC(=O)COc1ccc2c(=O)cc(-c3ccccc3)oc2c1` [EFLOXATE] here?
Answer: Its microsomal CLint at 1 h, 1 µM is > 300 µL/min/mg.

Question: With `CCOC(=O)[C@H](CCc1ccccc1)N[C@@H](C)C(=O)N1CC2(C[C@H]1C(=O)O)SCCS2` as the molecule, how does the microsomal CLint at 1 h, 1 µM read?
Answer: The microsomal CLint at 1 h, 1 µM was < 8 µL/min/mg.

Question: Which microsomal CLint at 1 h, 1 µM does the source give for `CCOC(=O)[C@H](CCc1ccccc1)N[C@H]1CCc2ccccc2N(CC(=O)O)C1=O` [BENAZEPRIL] here?
Answer: Its microsomal CLint at 1 h, 1 µM is 52.5 µL/min/mg.

Question: For `CCC[C@H](N[C@@H](C)C(=O)N1[C@H](C(=O)O)C[C@@H]2CCCC[C@@H]21)C(=O)OCC` [PERINDOPRIL], which microsomal CLint at 1 h, 1 µM is on record?
Answer: The microsomal CLint at 1 h, 1 µM was 10.7 µL/min/mg.

Question: For `CCOC(=O)C1(c2ccccc2)CCCN(C)CC1` (centres undefined) [ETHOHEPTAZINE], which microsomal CLint at 1 h, 1 µM is on record?
Answer: The microsomal CLint at 1 h, 1 µM was 22.6 µL/min/mg.

Question: With `COC(=O)C1=C(C)NC(C)=C(C(=O)OC(C)(C)CN(C)CCC(c2ccccc2)c2ccccc2)C1c1cccc([N+](=O)[O-])c1` (centres undefined) [LERCANIDIPINE] as the molecule, how does the microsomal CLint at 1 h, 1 µM read?
Answer: The microsomal CLint at 1 h, 1 µM was 125 µL/min/mg.

Question: With `CCOC(=O)[C@H](CCc1ccccc1)N[C@@H](C)C(=O)N1Cc2ccccc2C[C@H]1C(=O)O` as the molecule, how does the microsomal CLint at 1 h, 1 µM read?
Answer: Its microsomal CLint at 1 h, 1 µM is 8.5 µL/min/mg.

Question: With `COC(=O)[C@H]1[C@H]2C[C@@H]3c4[nH]c5cc(OC)ccc5c4CCN3C[C@H]2C[C@@H](OC(=O)c2cc(OC)c(OC)c(OC)c2)[C@@H]1OC` [RESERPINE] as the molecule, how does the microsomal CLint at 1 h, 1 µM read?
Answer: Its microsomal CLint at 1 h, 1 µM is 18.3 µL/min/mg.

Same assay, conditions: microsomes

Question: For `COC(=O)[C@H](c1ccccc1Cl)N1CCc2sccc2C1` [CLOPIDOGREL], which microsomal CLint at 1 h, 1 µM is on record?
Answer: Its microsomal CLint at 1 h, 1 µM is > 300 µL/min/mg.
